Tested on: 885724-159-R-J1-PDC KRAS PDC multicell spheroid viability
Test: Anticancer human tumor 885724-159-R-J1-PDC patient-derived pancreatic adenocarcinoma cell line growth inhibition [KRAS2]
Conditions: for IC50: curve of first compound; for viability, T/C: stronger effect = lower value
In short: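 Combination screen of spheroid viability in tumor-cell co-cultures with endothelial (HUVEC) and mesenchymal stem cell stroma. Each agent was tested in half-log dilutions, topping at clinical Cmax or at 10 microM without a known Cmax.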

[1] = second compound 0.0316 µM, first compound 0.0316 µM
[2] = second compound 0.0316 µM, first compound 0.1 µM
[3] = second compound 0.0316 µM, first compound 0.316 µM
[4] = second compound 0.0316 µM, first compound 1 µM
[5] = second compound 0.0316 µM, first compound 3.16 µM
[6] = second compound 0.1 µM, first compound 0.01 µM
[7] = second compound 0.1 µM, first compound 0.0316 µM
[8] = second compound 0.1 µM, first compound 0.1 µM
[9] = second compound 0.1 µM, first compound 0.316 µM
[10] = second compound 0.1 µM, first compound 1 µM
[11] = second compound 0.1 µM, first compound 3.16 µM
[12] = second compound 0.316 µM, first compound 0.01 µM
[13] = second compound 0.316 µM, first compound 0.0316 µM
[14] = second compound 0.316 µM, first compound 0.1 µM
[15] = second compound 0.316 µM, first compound 0.316 µM
[16] = second compound 0.316 µM, first compound 1 µM
[17] = second compound 0.316 µM, first compound 3.16 µM
[18] = second compound 1 µM, first compound 0.01 µM
[19] = second compound 1 µM, first compound 0.0316 µM
[20] = second compound 1 µM, first compound 0.1 µM
[21] = second compound 1 µM, first compound 0.316 µM
[22] = second compound 1 µM, first compound 1 µM
[23] = second compound 1 µM, first compound 3.16 µM
[24] = second compound 3.16 µM, first compound 0.01 µM
[25] = second compound 3.16 µM, first compound 0.0316 µM
[26] = second compound 3.16 µM, first compound 0.1 µM
[27] = second compound 3.16 µM, first compound 0.316 µM
[28] = second compound 3.16 µM, first compound 1 µM
[29] = second compound 3.16 µM, first compound 3.16 µM
[30] = second compound 0.0316 µM, first compound 10 µM
[31] = second compound 0.1 µM, first compound 10 µM
[32] = second compound 0.316 µM, first compound 10 µM
[33] = second compound 1 µM, first compound 10 µM
[34] = second compound 3.16 µM, first compound 10 µM
[35] = second compound 10 µM, first compound 0.01 µM
[36] = second compound 10 µM, first compound 0.0316 µM
[37] = second compound 10 µM, first compound 0.1 µM
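Also: spheroids exposed to agents for 7 days before readout.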

CC1COCCN1c1cc(-c2ccnn2C)c2ccnc(-c3ccn[nH]3)c2n1 (stereo not given) + C=CC(=O)N1CCN(c2nc(OCC3CCCN3C)nc3c2CCN(c2cccc4cccc(C)c24)C3)CC1CC#N
IC50 (second compound 0.0316 µM): 1.79 µM
IC50 (second compound 0.1 µM): 0.909 µM
IC50 (second compound 0.316 µM): 0.723 µM
IC50 (second compound 1 µM): 0.298 µM
IC50 (second compound 3.16 µM): 0.017 µM
viability, T/C (second compound 0.0316 µM, first compound 0.01 µM): 102%
viability, T/C [1]: 77.8%
viability, T/C [2]: 64.8%
viability, T/C [3]: 58.8%
viability, T/C [4]: 48.8%
viability, T/C [5]: 49.3%
viability, T/C [6]: 103%
viability, T/C [7]: 83.7%
viability, T/C [8]: 65.5%
viability, T/C [9]: 54.5%
viability, T/C [10]: 45.8%
viability, T/C [11]: 51.2%
viability, T/C [12]: 95%
viability, T/C [13]: 74.6%
viability, T/C [14]: 60.8%
viability, T/C [15]: 54.6%
viability, T/C [16]: 46.4%
viability, T/C [17]: 47.8%
viability, T/C [18]: 85%
viability, T/C [19]: 76.3%
viability, T/C [20]: 59.7%
viability, T/C [21]: 51.5%
viability, T/C [22]: 41.6%
viability, T/C [23]: 42.4%
viability, T/C [24]: 53.4%
viability, T/C [25]: 46.5%
viability, T/C [26]: 37.2%
viability, T/C [27]: 33.5%
viability, T/C [28]: 25.4%
viability, T/C [29]: 23.4%

CC1OCC2(CCN(c3cnc(Sc4ccnc(N)c4Cl)c(N)n3)CC2)C1N (stereo not given) + C=CC(=O)N1CCN(c2nc(OCC3CCCN3C)nc3c2CCN(c2cccc4cccc(C)c24)C3)CC1CC#N
IC50 (second compound 0.0316 µM): > 10 µM
IC50 (second compound 0.1 µM): > 10 µM
IC50 (second compound 0.316 µM): > 10 µM
IC50 (second compound 1 µM): 9.45 µM
IC50 (second compound 3.16 µM): < 0.0316 µM
viability, T/C [1]: 97%
viability, T/C [2]: 85.7%
viability, T/C [3]: 76.6%
viability, T/C [4]: 68.4%
viability, T/C [5]: 69.7%
viability, T/C [30]: 56.6%
viability, T/C [7]: 103%
viability, T/C [8]: 89.8%
viability, T/C [9]: 71.6%
viability, T/C [10]: 69.6%
viability, T/C [11]: 63.4%
viability, T/C [31]: 61.6%
viability, T/C [13]: 94%
viability, T/C [14]: 84.7%
viability, T/C [15]: 70.5%
viability, T/C [16]: 67.9%
viability, T/C [17]: 60.2%
viability, T/C [32]: 57.3%
viability, T/C [19]: 79.4%
viability, T/C [20]: 73.4%
viability, T/C [21]: 64%
viability, T/C [22]: 56.2%
viability, T/C [23]: 56.8%
viability, T/C [33]: 48.6%
viability, T/C [25]: 46%
viability, T/C [26]: 40.2%
viability, T/C [27]: 36.1%
viability, T/C [28]: 33.6%
viability, T/C [29]: 35.1%
viability, T/C [34]: 27.1%

CCNC(=O)CC1N=C(c2ccc(Cl)cc2)c2cc(OC)ccc2-n2c(C)nnc21 (stereo not given) + C=CC(=O)N1CCN(c2nc(OCC3CCCN3C)nc3c2CCN(c2cccc4cccc(C)c24)C3)CC1CC#N
IC50 (second compound 0.0316 µM): 3.55 µM
IC50 (second compound 0.1 µM): 1.18 µM
IC50 (second compound 0.316 µM): 0.835 µM
IC50 (second compound 1 µM): 0.855 µM
IC50 (second compound 3.16 µM): < 0.0316 µM
viability, T/C [1]: 110%
viability, T/C [2]: 98.9%
viability, T/C [3]: 74.7%
viability, T/C [4]: 63.9%
viability, T/C [5]: 49.9%
viability, T/C [30]: 44.8%
viability, T/C [7]: 102%
viability, T/C [8]: 89.1%
viability, T/C [9]: 64.8%
viability, T/C [10]: 51%
viability, T/C [11]: 46.3%
viability, T/C [31]: 45.7%
viability, T/C [13]: 118%
viability, T/C [14]: 105%
viability, T/C [15]: 63.5%
viability, T/C [16]: 50.4%
viability, T/C [17]: 45%
viability, T/C [32]: 42.4%
viability, T/C [19]: 87.2%
viability, T/C [20]: 82.7%
viability, T/C [21]: 66.5%
viability, T/C [22]: 46.5%
viability, T/C [23]: 45%
viability, T/C [33]: 39.5%
viability, T/C [25]: 49%
viability, T/C [26]: 49.4%
viability, T/C [27]: 39.2%
viability, T/C [28]: 20.6%
viability, T/C [29]: 29.3%
viability, T/C [34]: 27.9%

Cn1nccc1Nc1nccc(-c2cc3c(s2)C(C)(C)N(CCN2CCOCC2)C3=O)n1 + C=CC(=O)N1CCN(c2nc(OCC3CCCN3C)nc3c2CCN(c2cccc4cccc(C)c24)C3)CC1CC#N
IC50 (second compound 0.0316 µM): 0.601 µM
IC50 (second compound 0.1 µM): 0.506 µM
IC50 (second compound 0.316 µM): 0.315 µM
IC50 (second compound 1 µM): 0.421 µM
IC50 (second compound 3.16 µM): < 0.0316 µM
viability, T/C [1]: 98.1%
viability, T/C [2]: 81%
viability, T/C [3]: 57.7%
viability, T/C [4]: 43.8%
viability, T/C [5]: 34%
viability, T/C [30]: 29.6%
viability, T/C [7]: 97.5%
viability, T/C [8]: 78.4%
viability, T/C [9]: 58%
viability, T/C [10]: 39.5%
viability, T/C [11]: 32.8%
viability, T/C [31]: 31.8%
viability, T/C [13]: 87.2%
viability, T/C [14]: 72.8%
viability, T/C [15]: 48.2%
viability, T/C [16]: 38.2%
viability, T/C [17]: 31.4%
viability, T/C [32]: 29.2%
viability, T/C [19]: 75.5%
viability, T/C [20]: 69.4%
viability, T/C [21]: 55%
viability, T/C [22]: 36.1%
viability, T/C [23]: 29.6%
viability, T/C [33]: 28.2%
viability, T/C [25]: 45.8%
viability, T/C [26]: 32.2%
viability, T/C [27]: 25.5%
viability, T/C [28]: 18.1%
viability, T/C [29]: 14.7%
viability, T/C [34]: 9.26%

CC(=O)OC12COC1CC(O)C1(C)C(=O)C(O)C3=C(C)C(OC(=O)C(O)C(NC(=O)OC(C)(C)C)c4ccccc4)CC(O)(C(OC(=O)c4ccccc4)C21)C3(C)C (stereo not given) + CC1OCC2(CCN(c3cnc(Sc4ccnc(N)c4Cl)c(N)n3)CC2)C1N
IC50 (second compound 0.1 µM): > 3.16 µM
IC50 (second compound 0.316 µM): > 3.16 µM
IC50 (second compound 1 µM): > 3.16 µM
IC50 (second compound 3.16 µM): > 3.16 µM
IC50 (second compound 10 µM): > 3.16 µM
viability, T/C [6]: 103%
viability, T/C [7]: 110%
viability, T/C [8]: 108%
viability, T/C [9]: 117%
viability, T/C [10]: 122%
viability, T/C [11]: 121%
viability, T/C [12]: 99.7%
viability, T/C [13]: 100%
viability, T/C [14]: 109%
viability, T/C [15]: 114%
viability, T/C [16]: 128%
viability, T/C [17]: 116%
viability, T/C [18]: 112%
viability, T/C [19]: 120%
viability, T/C [20]: 126%
viability, T/C [21]: 122%
viability, T/C [22]: 135%
viability, T/C [23]: 138%
viability, T/C [24]: 76.2%
viability, T/C [25]: 86.7%
viability, T/C [26]: 88.9%
viability, T/C [27]: 93.6%
viability, T/C [28]: 97.2%
viability, T/C [29]: 97.8%
viability, T/C [35]: 77.6%
viability, T/C [36]: 84.5%
viability, T/C [37]: 87.4%
viability, T/C (second compound 10 µM, first compound 0.316 µM): 95.5%
viability, T/C (second compound 10 µM, first compound 1 µM): 91.5%
viability, T/C (second compound 10 µM, first compound 3.16 µM): 103%

CN(C)C/C=C/C(=O)Nc1cc2c(Nc3ccc(F)c(Cl)c3)ncnc2cc1O[C@H]1CCOC1 + CC1OCC2(CCN(c3cnc(Sc4ccnc(N)c4Cl)c(N)n3)CC2)C1N
IC50 (second compound 0.1 µM): > 0.1 µM
IC50 (second compound 0.316 µM): > 0.1 µM
IC50 (second compound 1 µM): > 0.1 µM
IC50 (second compound 3.16 µM): > 0.1 µM
IC50 (second compound 10 µM): > 0.1 µM
viability, T/C (second compound 0.1 µM, first compound 0.000316 µM): 112%
viability, T/C (second compound 0.1 µM, first compound 0.001 µM): 105%
viability, T/C (second compound 0.1 µM, first compound 0.00316 µM): 105%
viability, T/C [6]: 89.4%
viability, T/C [7]: 71.8%
viability, T/C [8]: 68%
viability, T/C (second compound 0.316 µM, first compound 0.000316 µM): 103%
viability, T/C (second compound 0.316 µM, first compound 0.001 µM): 102%
viability, T/C (second compound 0.316 µM, first compound 0.00316 µM): 90.7%
viability, T/C [12]: 81.3%
viability, T/C [13]: 78.6%
viability, T/C [14]: 71.5%
viability, T/C (second compound 1 µM, first compound 0.000316 µM): 150%
viability, T/C (second compound 1 µM, first compound 0.001 µM): 144%
viability, T/C (second compound 1 µM, first compound 0.00316 µM): 136%
viability, T/C [18]: 121%
viability, T/C [19]: 105%
viability, T/C [20]: 89.2%
viability, T/C (second compound 3.16 µM, first compound 0.000316 µM): 88.1%
viability, T/C (second compound 3.16 µM, first compound 0.001 µM): 88%
viability, T/C (second compound 3.16 µM, first compound 0.00316 µM): 77.8%
viability, T/C [24]: 72.8%
viability, T/C [25]: 67.1%
viability, T/C [26]: 62.8%
viability, T/C (second compound 10 µM, first compound 0.000316 µM): 147%
viability, T/C (second compound 10 µM, first compound 0.001 µM): 149%
viability, T/C (second compound 10 µM, first compound 0.00316 µM): 140%
viability, T/C [35]: 116%
viability, T/C [36]: 104%
viability, T/C [37]: 92%

— PubChem BioAssay AID1963861 (Molecular Pharmacology Branch, DTP, NCI, 2024)
